Entries after “also recorded” stand apart in the source; their conditions may differ.
Legend:
cell membranes = assay: Cell permeation of donor fluorophore
holo carbonic anhydrase = holo carbonic anhydrase (Homo sapiens, UniProt P00918); conditions: read-out: Kd of binding to holoprotein; cited from earlier work

CN(C)c1ccc(-c2cnc(-c3ccc(S(N)(=O)=O)cc3)o2)cc1 [Dapoxyl sulfonamide]
cell permeability (cell membranes): readily penetrates cell membranes; also recorded: rapidly cell-permeant | Kd (holo carbonic anhydrase): 0.2 µM

Reference: US7491545B2, “Excitation ratiometric fluoroscent biosensor for zinc ion at picomolar levels” (priority 2002, dated 2009)
